Data published in PubChem BioAssay AID1996.
≈ marks a conversion by molar mass, not a printed value.

Conditions: buffer; pH 7.4; 200.0 µM

| SMILES | solubility kinetic [µg/mL] |
| --- | --- |
| O=C(Nc1ccc2c(c1)C(=O)OC2)c1ccc(C(F)(F)F)cc1 | < 0.7 |
| Cc1cccc(-c2noc(CN(C)C(=O)COc3ccccc3)n2)c1 | 36.9 (≈ 109 µM) |
| O=S1(=O)N=C2CCCCCN2C(c2ccc(F)cc2)N1 (stereo not given) | > 44.6 |
| CC1(C)CC(=O)C=C(Nc2ccccc2C#N)C1.Cl | 38.2 |
| O=C(COC(=O)c1ccc2ccccc2n1)c1ccc(F)cc1 | 16.8 (≈ 54.3 µM) |
| O=C(NCc1ccco1)C1CC(c2ccc(Cl)cc2)=NO1 (stereo not given) | 2.9 (≈ 9.52 µM) |
| CN(C)CCN=Cc1c(O)n(Cc2ccc3c(c2)OCO3)c(=S)[nH]c1=O | 55.8 (≈ 148 µM) |
| O=C(COc1ccc(Cl)cc1)N1CCCCCCC1 | 31.8 (≈ 113 µM) |
| CCOC(=O)c1csc(COc2ccccc2Cl)n1 | 2.9 (≈ 9.74 µM) |
| CCOC(=O)c1csc(NC(C)=O)n1 | > 32.1 |
| COc1cc(OC)cc(C(=O)N[C@H](C(=O)Nc2c(C)n(C)n(-c3ccccc3)c2=O)C(C)C)c1 | > 70 |
| C/C(=N\NC(=O)CCC(=O)NCc1ccccc1)c1ccco1 | > 47 |
| CNC(=O)C12N=CNN=C1N(C)C(=O)N2C (stereo not given) | > 33.6 |
| CN1C(=O)NC(c2ccc(O)cc2)C2=C1CN(c1ccc(O)cc1)C2=O (stereo not given) | > 52.7 |
| COc1ccc(C(=O)Nc2cc(C)on2)c(OC)c1 | 21.4 (≈ 81.6 µM) |
| CC(=O)CSc1nnc2cc(C)c3ccccc3n12 | > 40.7 |
| Cc1cc(NC(=O)CN2CCC(C)CC2)no1.O=C(O)C(=O)O | > 49.1 |
| CCN(Cc1ccccc1)C(=O)Cc1c[nH]c2ccccc12 | 33.9 (≈ 116 µM) |
| COc1cccc(C(=O)Nc2cc3c4c(c2)CC(=O)N4CCC3)c1 | > 48.4 |
| Cn1c(=O)[nH]c(=O)c2c1nc(N1CCCC1)n2CCO | > 41.9 |

| SMILES | solubility kinetic [µg/mL] |
| --- | --- |
| O=C(O)c1cc(S(=O)(=O)N2CCN(S(=O)(=O)c3ccc4ccccc4c3)CC2)ccc1Br | 77 (≈ 143 µM) |
| CCSc1nnc(NC(=O)C2CSC3(C)CCC(=O)N23)s1 (stereo not given) | > 51.7 |
| Cc1nc2ccccc2c(=O)n1-c1ccc(Cl)cc1[N+](=O)[O-] | 7.2 (≈ 22.8 µM) |
| CC12CC3(C)CC(C)(C1)CC(C(=O)NCc1ccccn1)(C2)C3 | 42.4 (≈ 136 µM) |
| O=C(CC(c1ccccc1)c1cc(Cl)ccc1O)N1CCCC1 (stereo not given) | > 49.5 |
| O=C1Nc2ccc(Cl)cc2C(=O)C1(F)c1ccccc1 (stereo not given) | 1.7 (≈ 5.87 µM) |
| CCCC(=O)OCC(=O)Nc1ccccc1C#N | > 36.9 |
| Cc1ccc(Cl)c2sc(NC(=O)C3=COCCO3)nc12 | 1.1 (≈ 3.54 µM) |
| O=S1(=O)CCC(NC(=S)Nc2ccccc2)C1 (stereo not given) | > 40.6 |
| CCN(C(=O)/C=C/c1ccc(OC)cc1)C1CCCCC1 | 38.3 (≈ 133 µM) |
| Cc1ccc(C)c(C(C)NC(=S)NCc2ccc(F)cc2)c1 (stereo not given) | 1.4 (≈ 4.42 µM) |
| Nc1nc(F)cc(NCc2ccccc2)n1 | > 32.7 |
| Cc1ccc(OCC(=O)NCc2ccco2)c([N+](=O)[O-])n1 | 37.3 (≈ 128 µM) |
| O=C(Nc1nccs1)C1CC=CCC1 (stereo not given) | 22.7 (≈ 109 µM) |
| Cc1cc(C(=O)Nc2ccc(N3CCCCC3)cc2)no1 | 6.8 (≈ 23.8 µM) |
| Cn1c(SCC(=O)N2CCCC2)nc2ccccc21 | > 41.3 |
| O=C(Cn1cc(C(F)(F)F)ccc1=O)Nc1ccc2c(c1)OCCO2 | 25.2 (≈ 71.1 µM) |
| COCCn1cc(C(=S)N2CCCCC2)c2ccccc21 | > 45.4 |
| CCc1ccc2[nH]c(C(=O)Nc3ccc4c(c3)OCO4)cc2c1 | 0.8 (≈ 2.59 µM) |
| Nc1ccnc(=O)[nH]1 | > 16.7 |

| SMILES | solubility kinetic [µg/mL] |
| --- | --- |
| Cc1cc(C)cc(NC(=O)NC2CCCCCCC2)c1 | 1 (≈ 3.64 µM) |
| CCOc1ccccc1NC(=O)c1ccc2c(c1)C(=O)N(CC)C2=O | < 0.4 |
| Cc1ccc(C(=O)NCC(c2ccc(F)cc2)N2CCOCC2)s1 (stereo not given) | > 52.3 |
| CC(=O)c1cccc(NC(=O)NCCc2c[nH]c3ccccc23)c1 | 2.2 (≈ 6.85 µM) |
| OC(c1ccccc1)c1nccc2ccccc12 (stereo not given) | > 35.3 |
| CN(Cc1cccc(F)c1)C(=O)c1cc(=O)[nH]c2ccccc12 | 44.3 (≈ 143 µM) |
| COc1ccc(CCNC2CCc3ccccc3C2)cc1 (stereo not given) | 28.3 (≈ 101 µM) |
| COc1cc(CN2CCCCCC2)cc(Br)c1O | 39.6 (≈ 126 µM) |
| Cc1ccc2c(Cl)cc(Cl)c(OCC(=O)NC(C)(C)C)c2n1 | 10 (≈ 29.3 µM) |
| O=C(CSc1cccc[n+]1[O-])Nc1ccc(Cl)cc1F | 15.1 (≈ 48.3 µM) |
| COc1cccc(CNCCO)c1OCc1ccc(Cl)cc1.Cl | > 53.7 |
| O=C(CSc1cccc(C(F)(F)F)c1)Nc1ccc(N2CCOCC2)cc1 | 7.7 (≈ 19.4 µM) |
| O=C(CNC(=O)N1CC(=O)Nc2ccccc21)Nc1ccccc1 | > 48.7 |
| CCCCS(=O)(=O)N1CCCC(C(=O)NCC2CCCO2)C1 (stereo not given) | 41.1 (≈ 124 µM) |
| O=C(c1ccccc1Oc1ccc([N+](=O)[O-])cc1)N1CCOCC1 | > 49.2 |
| CN(C(=O)COc1ncnc2ccccc12)C1CCCCC1 | 39 (≈ 130 µM) |
| COc1ccc2c(CC(=O)Nc3ccc(OC)nc3)coc2c1 | 14.8 (≈ 47.4 µM) |
| CCOC(=O)c1c(C)nc(C)c(C(=O)OCC)c1-c1cccc(N)c1 | 42.1 (≈ 123 µM) |
| CCCc1cc(C(=O)Nc2cccc(Cl)c2C)no1 | 16.4 (≈ 58.8 µM) |
| O=C(/C=C/c1ccco1)Nc1nc(-c2ccc(F)c(F)c2)cs1 | < 0.4 |
